Experimental data: PubChem BioAssay AID248 (DTP/NCI, 2004)
Toxic doses and inconclusive results are not listed. Cut-off read from the data, not from the text of the source: active = T/C of 150% or more; inactive = T/C below 125%.

Test system: L1210 leukemia ip in BDF1 mice, survival T/C
Assay: NCI In Vivo Anticancer Drug Screen. Data for tumor model L1210 Leukemia (intraperitoneal) in B6D2F1 (BDF1) mice
Conditions: higher = longer survival
Procedure, shortened: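 Tumor cells were implanted, animals were treated, and survival was followed. The result divides the treated measurement by the vehicle-control measurement.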

[1] = endpoint: mean survival time, dose: 100.0 mg/kg/injection, schedule: Q04DX003 (ip), vehicle: Klucel (hydroxypropylcellulose) (HPC)
[2] = endpoint: mean survival time, dose: 100.0 mg/kg/injection, schedule: Q01DX001 (ip), vehicle: saline
[3] = endpoint: mean survival time, dose: 100.0 mg/kg/injection, schedule: Q01DX009 (ip), vehicle: Klucel (hydroxypropylcellulose) (HPC)
[4] = endpoint: mean survival time, dose: 200.0 mg/kg/injection, schedule: Q01DX001 (ip), vehicle: saline
[5] = endpoint: mean survival time, dose: 200.0 mg/kg/injection, schedule: Q01DX009 (ip), vehicle: Klucel (hydroxypropylcellulose) (HPC)
[6] = endpoint: mean survival time, dose: 200.0 mg/kg/injection, schedule: Q04DX003 (ip), vehicle: Klucel (hydroxypropylcellulose) (HPC)
[7] = endpoint: mean survival time, dose: 400.0 mg/kg/injection, schedule: Q01DX001 (ip), vehicle: saline
[8] = endpoint: mean survival time, dose: 400.0 mg/kg/injection, schedule: Q01DX009 (ip), vehicle: Klucel (hydroxypropylcellulose) (HPC)
[9] = endpoint: mean survival time, dose: 400.0 mg/kg/injection, schedule: Q04DX003 (ip), vehicle: Klucel (hydroxypropylcellulose) (HPC)
[10] = endpoint: mean survival time, dose: 100.0 mg/kg/injection, schedule: Q04DX003 (ip), vehicle: saline
[11] = endpoint: mean survival time, dose: 200.0 mg/kg/injection, schedule: Q04DX003 (ip), vehicle: saline
[12] = endpoint: mean survival time, dose: 50.0 mg/kg/injection, schedule: Q01DX009 (ip), vehicle: saline with Tween-80

Measured: T/C

CC[C@H]1CN2CCc3cc(OC)c(OC)cc3[C@@H]2C[C@@H]1C[C@H]1NCCc2c1[nH]c1ccc(O)cc21
inactive: endpoint: mean survival time, dose: 0.25 mg/kg/injection, schedule: Q01DX006 (ip), vehicle: saline 109 % of control | endpoint: mean survival time, dose: 0.5 mg/kg/injection, schedule: Q01DX006 (ip), vehicle: saline 117 % of control | endpoint: mean survival time, dose: 2.0 mg/kg/injection, schedule: Q01DX005 (ip), vehicle: saline 121 % of control | endpoint: mean survival time, dose: 4.0 mg/kg/injection, schedule: Q01DX005 (ip), vehicle: saline 108 % of control | endpoint: mean survival time, dose: 4.0 mg/kg/injection, schedule: Q04DX003 (ip), vehicle: saline 114 % of control | endpoint: mean survival time, dose: 125.0 micrograms/kg/injection, schedule: Q01DX009 (ip), vehicle: saline 108 % of control | endpoint: mean survival time, dose: 250.0 micrograms/kg/injection, schedule: Q01DX009 (ip), vehicle: saline 118 % of control | endpoint: mean survival time, dose: 500.0 micrograms/kg/injection, schedule: Q01DX009 (ip), vehicle: saline 120 % of control | endpoint: mean survival time, dose: 1000.0 micrograms/kg/injection, schedule: Q01DX009 (ip), vehicle: saline 109 % of control | endpoint: median survival time, dose: 1.0 mg/kg/injection, schedule: Q04DX003 (ip), vehicle: saline + alcohol 108 % of control | endpoint: median survival time, dose: 2.0 mg/kg/injection, schedule: Q04DX003 (ip), vehicle: saline + alcohol 118 % of control

CCOC(=O)CC(C)(C)NCc1ccccc1
inactive: [1] 96 % of control

O=C1c2ccccc2-c2cc3ccccc3cc21
inactive: [2] 100 % of control | [3] 92 % of control | [1] 108 % of control | [4] 101 % of control | [5] 92 % of control | [6] 108 % of control | [7] 103 % of control | [8] 90 % of control | [9] 110 % of control

COC(=O)C1CC(NC(C)=O)C(OC(C)=O)C1OC(C)=O (centres undefined)
inactive: [2] 94 % of control | [4] 94 % of control | [7] 104 % of control

CC(C)(O)C(Cl)(Cl)Cl
inactive: [1] 101 % of control | [10] 98 % of control | [6] 95 % of control | [11] 100 % of control

O=C(NCCCl)Nc1ccc2c(c1)Cc1ccccc1-2
inactive: [1] 108 % of control | [6] 93 % of control | [9] 101 % of control

c1ccc(C2CC2NC2=NCCO2)cc1 (centres undefined)
inactive: endpoint: mean survival time, dose: 12.5 mg/kg/injection, schedule: Q04DX002 (ip), vehicle: saline with Tween-80 104 % of control | endpoint: mean survival time, dose: 25.0 mg/kg/injection, schedule: Q04DX002 (ip), vehicle: saline with Tween-80 101 % of control | endpoint: mean survival time, dose: 50.0 mg/kg/injection, schedule: Q04DX002 (ip), vehicle: saline with Tween-80 96 % of control | endpoint: mean survival time, dose: 100.0 mg/kg/injection, schedule: Q04DX002 (ip), vehicle: saline with Tween-80 93 % of control

CCOC(=O)/C(=N\O)C(C)(C)c1ccnc2ccccc12
inactive: endpoint: mean survival time, dose: 100.0 mg/kg/injection, schedule: Q04DX003 (ip), vehicle: saline with Tween-80 86 % of control | endpoint: mean survival time, dose: 200.0 mg/kg/injection, schedule: Q04DX003 (ip), vehicle: saline with Tween-80 88 % of control | endpoint: mean survival time, dose: 400.0 mg/kg/injection, schedule: Q04DX003 (ip), vehicle: saline with Tween-80 95 % of control

COC(=O)c1ccc(N(C)Cc2cnc3nc(N)nc(SCc4ccccc4)c3n2)cc1
inactive: endpoint: mean survival time, dose: 100.0 mg/kg/injection, schedule: Q01DX001 (ip), vehicle: saline with Tween-80 97 % of control | endpoint: mean survival time, dose: 200.0 mg/kg/injection, schedule: Q01DX001 (ip), vehicle: saline with Tween-80 94 % of control | endpoint: mean survival time, dose: 400.0 mg/kg/injection, schedule: Q01DX001 (ip), vehicle: saline with Tween-80 101 % of control

CN(C)C(SCc1c(Cl)c(Cl)c(Cl)c(Cl)c1Cl)=[N+](C)C
inactive: endpoint: mean survival time, dose: 3.0 mg/kg/injection, schedule: Q04DX002 (ip), vehicle: saline 101 % of control | endpoint: mean survival time, dose: 6.0 mg/kg/injection, schedule: Q04DX002 (ip), vehicle: saline 93 % of control | endpoint: mean survival time, dose: 12.0 mg/kg/injection, schedule: Q04DX002 (ip), vehicle: saline 104 % of control

COc1c(NC(=O)Nc2ccc(F)c([N+](=O)[O-])c2)cccc1[N+](=O)[O-]
inactive: [3] 93 % of control | [5] 101 % of control | [8] 97 % of control

CCOC(=O)c1ccc(NC(=O)Nc2ccc(F)c([N+](=O)[O-])c2)cc1
inactive: [3] 95 % of control | [5] 101 % of control | [8] 96 % of control

CCOc1ccc(NP(=O)(Oc2c(F)c(F)c(F)c(F)c2F)N(CCCl)CCCl)cc1 (centres undefined)
inactive: endpoint: mean survival time, dose: 62.5 mg/kg/injection, schedule: Q01DX001 (ip), vehicle: other 95 % of control | endpoint: mean survival time, dose: 125.0 mg/kg/injection, schedule: Q01DX001 (ip), vehicle: other 90 % of control | endpoint: mean survival time, dose: 250.0 mg/kg/injection, schedule: Q01DX001 (ip), vehicle: other 89 % of control | endpoint: mean survival time, dose: 500.0 mg/kg/injection, schedule: Q01DX001 (ip), vehicle: other 87 % of control

CN1CCC(CO)(c2ccccc2)C1 (centres undefined)
inactive: endpoint: mean survival time, dose: 75.0 mg/kg/injection, schedule: Q01DX001 (ip), vehicle: carboxymethylcellulose (CMC) 96 % of control | endpoint: mean survival time, dose: 150.0 mg/kg/injection, schedule: Q01DX001 (ip), vehicle: carboxymethylcellulose (CMC) 98 % of control

C1CC[N-]CC1.Oc1ccccc1C=NCCN=Cc1ccccc1O.[Co]
inactive: endpoint: mean survival time, dose: 6.25 mg/kg/injection, schedule: Q04DX002 (ip), vehicle: saline with Tween-80 90 % of control

CCCCCCC(/C=N\Nc1nnc(N/N=C\C(=C\c2ccccc2)CCCCCC)c2ccccc12)=C/c1ccccc1
inactive: endpoint: mean survival time, dose: 50.0 mg/kg/injection, schedule: Q01DX001 (ip), vehicle: other 109 % of control | endpoint: mean survival time, dose: 100.0 mg/kg/injection, schedule: Q01DX001 (ip), vehicle: other 103 % of control | endpoint: mean survival time, dose: 200.0 mg/kg/injection, schedule: Q01DX001 (ip), vehicle: other 111 % of control | endpoint: mean survival time, dose: 400.0 mg/kg/injection, schedule: Q01DX001 (ip), vehicle: other 105 % of control

CCCCC[n+]1cccc(C#N)c1
inactive: endpoint: mean survival time, dose: 37.5 mg/kg/injection, schedule: Q04DX003 (ip), vehicle: saline 100 % of control | endpoint: mean survival time, dose: 75.0 mg/kg/injection, schedule: Q01DX001 (ip), vehicle: saline 96 % of control | endpoint: mean survival time, dose: 75.0 mg/kg/injection, schedule: Q04DX003 (ip), vehicle: saline 91 % of control | endpoint: mean survival time, dose: 150.0 mg/kg/injection, schedule: Q01DX001 (ip), vehicle: saline 100 % of control | endpoint: mean survival time, dose: 150.0 mg/kg/injection, schedule: Q04DX003 (ip), vehicle: saline 100 % of control

C/C(CCCCCCCCC#N)=N/Nc1ccc([N+](=O)[O-])cc1[N+](=O)[O-]
inactive: [1] 93 % of control | [6] 93 % of control | [9] 98 % of control

CC(=O)Nc1ccc(C)c([N+](=O)[O-])c1
inactive: endpoint: mean survival time, dose: 100.0 mg/kg/injection, schedule: Q01DX009 (ip), vehicle: saline 100 % of control | [10] 98 % of control | endpoint: mean survival time, dose: 200.0 mg/kg/injection, schedule: Q01DX009 (ip), vehicle: saline 93 % of control | [11] 93 % of control | endpoint: mean survival time, dose: 400.0 mg/kg/injection, schedule: Q01DX009 (ip), vehicle: saline 97 % of control | endpoint: mean survival time, dose: 400.0 mg/kg/injection, schedule: Q04DX003 (ip), vehicle: saline 102 % of control

C#CCSP(=O)(O)O
inactive: endpoint: mean survival time, dose: 25.0 mg/kg/injection, schedule: Q01DX009 (ip), vehicle: saline with Tween-80 103 % of control | [12] 103 % of control

CN(C)c1ccc(/C=N/NC(=O)CNC(=O)c2ccc(Cl)cc2Cl)cc1
inactive: [12] 86 % of control | endpoint: mean survival time, dose: 100.0 mg/kg/injection, schedule: Q01DX009 (ip), vehicle: saline with Tween-80 88 % of control
